Measured values reported in patent publication US20200131144A1, “AMINE OR (THIO)AMIDE CONTAINING LXR MODULATORS” (Phenex-FXR GmbH, priority 2017, published 2020).
pEC50: −log10 of the molar value. Where two headings read alike, the source gives them in different places.

Legend:
[1] = Pharmacokinetics in mice after single oral dosing, blood and liver exposure by LC-MS; format: in vivo, mice (C57/bl6/J); details: single oral dose 20 mg/kg, time point 4 h; for Kp at 4 h: male, C57/bl6/J, mouse, liver/blood, read-out: liver/blood ratio
Description: The pharmacokinetics of the compounds was assessed in mice after single dosing and oral administrations. Blood and liver exposure was measured via LC-MS.
The study design was as follows:
Animals: C57/bl6/J (Janvier) males Diet: standard rodent chow Dose: 20 mg/kg Animal handling: animals were withdrawn from food at least 12 h before administration Design: single dose oral administration, n=3 animals per group Sacrifice: at stated time point (4, 12 or 24 h) after administration Bioanalytics: LC-MS of liver and blood samples

[2] = biological target: T1, GST-LXRβ ligand-binding domain (Homo sapiens, UniProt P55055, INS174Q); experiment: TR-FRETβ activity assay (NCoA3 coactivator peptide recruitment); format: biochemical; details: 1 μM 24(S)-25-epoxycholesterol as prestimulating agonist; inverse agonist unless *
T1 construct: amino acids 156-461; NP009052; made in house; host or cells: E. coli
T1 sequence (P55055 with tags, fused parts or gaps INS174Q limits assumed): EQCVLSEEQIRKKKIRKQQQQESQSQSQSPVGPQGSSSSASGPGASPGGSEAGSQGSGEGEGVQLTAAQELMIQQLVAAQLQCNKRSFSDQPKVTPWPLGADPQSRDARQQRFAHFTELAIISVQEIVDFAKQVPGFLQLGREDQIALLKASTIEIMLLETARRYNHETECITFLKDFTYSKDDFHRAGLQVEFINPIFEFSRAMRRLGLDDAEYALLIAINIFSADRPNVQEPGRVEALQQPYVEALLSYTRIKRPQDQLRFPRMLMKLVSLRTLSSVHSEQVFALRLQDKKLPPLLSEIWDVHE
In short: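 Coactivator recruitment read as TR-FRET (ex 340, em 615 and 665 nm) after 1 h equilibration at 4° C, in triplicate. Mix held 76 nM GST-tagged LXRβ LBD (aa 156-461, E. coli), 400 nM biotin-NCoA3 peptide, Tb-cryptate anti-GST, streptavidin-XL665, 240 mM KCl buffer.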

[3] = biological target: T2, LXRβ full length (FL) (Homo sapiens, UniProt P55055, INS174Q); experiment: LXR Gal4 reporter transient transfection assay, mammalian two-hybrid, FL-M2H Gal4β; format: cell-based; details: HEK293 cells; inverse agonist unless *
T2 construct: the full length (FL) proteins of LXRα (amino acids 1-447); NP005684; NP009052; expressed in transfected cells; host or cells: HEK293
T2 sequence (P55055 with tags, fused parts or gaps INS174Q): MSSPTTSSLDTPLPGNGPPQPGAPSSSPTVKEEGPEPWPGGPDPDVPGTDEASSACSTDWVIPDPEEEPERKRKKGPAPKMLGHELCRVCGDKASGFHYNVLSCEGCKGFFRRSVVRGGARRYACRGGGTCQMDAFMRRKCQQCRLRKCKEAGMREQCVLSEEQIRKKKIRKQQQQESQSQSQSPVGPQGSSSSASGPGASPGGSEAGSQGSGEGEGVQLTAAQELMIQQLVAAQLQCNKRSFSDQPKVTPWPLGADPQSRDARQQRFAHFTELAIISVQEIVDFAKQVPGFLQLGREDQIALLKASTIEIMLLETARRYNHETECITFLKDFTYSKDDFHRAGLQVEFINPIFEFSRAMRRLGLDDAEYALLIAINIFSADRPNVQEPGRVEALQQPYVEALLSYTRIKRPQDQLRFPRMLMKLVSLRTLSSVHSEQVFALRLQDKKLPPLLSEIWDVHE
In short: (§1)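 Mammalian two-hybrid read-out: interaction of LXRα or LXRβ (full length or ligand-binding domain, NFkB activation-domain fusions) with GAL4-fused SRC1 or NCoR domains drives GAL4-responsive firefly luciferase in HEK293 cells, normalised by Renilla cotransfection. Compounds given 4 h after transfection, ≤0.2% vehicle, cells lysed after 16 h.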

[4] = biological target: T3, LXRα full length (FL) (Homo sapiens, UniProt Q13133); experiment: LXR Gal4 reporter transient transfection assay, mammalian two-hybrid, FL-M2H Gal4α; format: cell-based; details: HEK293 cells; inverse agonist unless *
T3 construct: the full length (FL) proteins of LXRα (amino acids 1-447); NP005684; expressed in transfected cells; host or cells: HEK293
T3 sequence (Q13133 1-447): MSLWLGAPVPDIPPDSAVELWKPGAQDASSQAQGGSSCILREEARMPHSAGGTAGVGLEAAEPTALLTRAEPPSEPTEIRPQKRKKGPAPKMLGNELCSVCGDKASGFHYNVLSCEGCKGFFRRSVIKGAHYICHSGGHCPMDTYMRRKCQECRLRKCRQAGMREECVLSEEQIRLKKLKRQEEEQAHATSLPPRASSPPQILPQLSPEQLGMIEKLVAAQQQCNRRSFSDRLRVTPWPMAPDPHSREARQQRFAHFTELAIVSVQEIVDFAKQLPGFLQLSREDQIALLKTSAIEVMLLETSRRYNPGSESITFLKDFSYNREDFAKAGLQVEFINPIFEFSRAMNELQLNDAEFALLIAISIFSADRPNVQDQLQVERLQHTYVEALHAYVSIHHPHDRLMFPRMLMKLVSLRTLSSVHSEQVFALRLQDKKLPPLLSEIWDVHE
In short: as §1

[5] = biological target: T4, LXRβ ligand-binding domain (LBD) (Homo sapiens, UniProt P55055, INS174Q); experiment: LXR Gal4 reporter transient transfection assay, mammalian two-hybrid, LBD-M2H Gal4β; format: cell-based; details: HEK293 cells; inverse agonist unless *
T4 construct: or LXR (amino acids 156-461); expressed in transfected cells; host or cells: HEK293
T4 sequence (P55055 with tags, fused parts or gaps INS174Q limits assumed): T1 sequence (P55055 with tags, fused parts or gaps INS174Q limits assumed)
Description: The tested compounds were usually dissolved, tested and stored as 20 mM stock solutions in DMSO. Since sulfonyl acetic acid derivatives tend to decarboxylate under these conditions, these stock solutions were prepared, tested and stored as 20 mM DMSO stock solutions containing 100 mM trifluoroacetic acid (5 equivalents). Sulfonyl acetic acid derivatives are shelf stable as solid at rt for long time as reported by Griesbrecht et al. (Synlett 2010:374) or Faucher et al. (J. Med. Chem. 2004; 47:18).
LXR Gal4 Reporter Transient Transfection Assays
LXRα and LXRβ activity status was determined via detection of interaction with coactivator and corepressor proteins in mammalian two-hybrid experiments (M2H). For this, via transient transfection the full length (FL) proteins of LXRα (amino acids 1-447; NP005684; SEQ ID NO:1) or LXRβ-(amino acids 1-461; NP009052; SEQ ID NO:2) or the ligand-binding domains (LBD) of LXRα (amino acids 155-447 SEQ ID NO:3) or LXR (amino acids 156-461; SEQ ID NO:4) were expressed from pCMV-AD (Stratagene) as fusions to the transcriptional activation domain of NFkB. As cofactors, domains of either the steroid receptor coactivator 1 (SRC1; amino acids 552-887; SEQ ID NO:5) or of the corepressor NCoR (amino acids 1906-2312; NP006302; SEQ ID NO:6) were expressed as fusions to the DNA binding domain of the yeast transcription factor GAL4 (from pCMV-BD; Stratagene). Interaction was monitored via activation of a coexpressed Firefly Luciferase Reporter gene under control of a promoter containing repetitive GAL4 response elements (vector pFRLuc; Stratagene). Transfection efficiency was controlled via cotransfection of constitutively active pRL-CMV Renilla reniformis luciferase reporter (Promega). HEK293 cells were grown in minimum essential medium (MEM) with 2 mM L-glutamine and Earle's balanced salt solution supplemented with 8.3% fetal bovine serum, 0.1 mM non-essential amino acids, 1 mM sodium pyruvate, at 37° C. in 5% CO2. 3.5×10^4 cells/well were plated in 96-well cell culture plates in growth medium supplemented with 8.3% fetal bovine serum for 16-20 h to—90% confluency. For transfection, medium was taken off and LXR and cofactor expressing plasmids as well as the reporter plasmids are added in 30 μL OPTIMEM/well including polyethylene-imine (PEI) as vehicle. Typical amounts of plasmids transfected/well: pCMV-AD-LXR (5 ng), pCMV-BD-cofactor (5 ng), pFR-Luc (100 ng), pRL-CMV (0.5 ng). Compound stocks were prepared in DMSO, prediluted in MEM to a total volume of 120 μL, and added 4 h after addition of the transfection mixture (final vehicle concentration not exceeding 0.2%). Cells were incubated for additional 16 h, lysed for 10 min in 1×Passive Lysis Buffer (Promega) and Firefly and Renilla luciferase activities were measured sequentially in the same cell extract using buffers containing D-luciferine and coelenterazine, respectively. Measurements of luminescence were done in a BMG-luminometer.

[6] = Short term HFD mouse model: liver and plasma exposure after multiple oral dosing; format: in vivo, mice (C57BL/6J); details: C57BL/6J, HFD mice, three oral doses of 10 mg/kg each, 4 h after final dose
From the text: Short Term HFD Mouse Model:
For this, C57BL/6J were purchased from Elevage Janvier (Rennes, France) at the age of 8 weeks. After an acclimation period of two weeks, animals were prefed on a high fat diet (HFD) (Ssniff Spezialdiäten GmbH, Germany, Surwit EF D12330 mod, Cat. No. E15771-34), with 60 kcal % from fat plus 1% (w/w) extra cholesterol (Sigma-Aldrich, St. Louis, Mo.) for 5 days. Animals were maintained on this diet during treatment with LXR modulators. The test compounds were formulated in 0.5% hydroxypropylmethylcellulose (HPMC) and administered in three doses (from 1.5 to 20 mg/kg each) by oral gavage according to the following schedule: on day one, animals received treatment in the morning and the evening (ca. 17:00), on day two animals received the final treatment in the morning after a 4 h fast and were sacrificed 4 h thereafter. Animal work was conducted according to the national guidelines for animal care in Germany.
Multiple oral dosing of compounds from the present invention in mice lead to a high liver exposure with a favourable liver to plasma ratio. […] These genes are related to hepatic de-novo lipogenesis. A suppression of these genes will reduce liver fat (liver triglycerides).

| SMILES | Kp at 4 h [1] | blood/plasma exposure [1] [µM] | liver exposure [1] [µM] | pEC50 [2] | pEC50 [3] | pEC50 [4] | pEC50 [5] | concentration at 4 h ([6]; liver, read-out: liver exposure, 4 h) [nM] | Kp at 4 h ([6]; liver/plasma, read-out: liver/plasma ratio, 4 h) | concentration at 4 h ([6]; plasma, read-out: plasma exposure, 4 h) [nM] |
| --- | --- | --- | --- | --- | --- | --- | --- | --- | --- | --- |
| N#Cc1ccc2ccccc2c1CN(Cc1ccc(-c2cccc(S(=O)(=O)CC(=O)O)c2)cc1)Cc1ccc(C(F)(F)F)o1 [7/7] | 44 | 0.01 | 0.42 | 5.00 to 6.00 | 6.00 to 7.00 | 5.00 to 6.00 |  |  |  |  |
| COc1cc(CN(Cc2ccc(C(F)(F)F)o2)Cc2c(C)ccc3ccccc23)ccc1-c1cccc(C(C)(C)C(=O)O)c1 [22/1] |  |  |  | 5.00 to 6.00 |  |  | 6.00 to 7.00 |  |  |  |
| Cc1ccc2ccccc2c1C(=O)N(Cc1ccc(-c2cccc(C(C)(C)C(=O)NO)c2)cc1)Cc1ccc(C(F)(F)F)o1 [5/3] | 7.6 | 0.08 | 0.61 | > 7.00 | > 7.00 | > 7.00 |  |  |  |  |
| Cc1ccc2ccccc2c1CN(Cc1ccc(C(F)(F)F)o1)Cc1ccc(-c2cncc(S(=O)(=O)CC(=O)O)c2)cc1Cl [26/8] | 178 | 0.01 | 1.41 | 5.00 to 6.00 | 6.00 to 7.00 | 6.00 to 7.00 |  |  |  |  |
| Cc1ccc2ccccc2c1CN(Cc1ccc(-c2nc(C(C)(C)C(=O)O)cs2)cc1)Cc1ccc(C(F)(F)F)o1 [26/3] |  |  |  | 5.00 to 6.00 |  |  | > 7.00 |  |  |  |
| Cc1ccc2ccccc2c1CN(Cc1ccc(-c2cccc([C@@H](C)C(=O)O)c2)cc1)Cc1ccc(C(F)(F)F)o1 [27/72] |  |  |  | 6.00 to 7.00 |  | > 7.00 |  | 2020 | 1.4 | 1440 |
| Cc1c(CN(Cc2ccc(-c3cccc(C(C)(C)C(=O)O)c3)cc2)Cc2ccc(C(F)(F)F)o2)c2ccccc2n(C)c1=O [27/23] | 19 | 0.15 | 2.9 | 6.00 to 7.00 | > 7.00 | > 7.00 |  |  |  |  |
